Test results published in patent publication US20070026402A1, “Genetic marker of response to atypical antipsychotics and antidepressants methods for use thereof” (priority 2003, published 2007).
Entries after “also recorded” stand apart in the source; their conditions may differ. Blank lines part the entries; values can stand above or below the molecule they belong to.

Assays:
PTSD patients [1] = assay: General Health Questionnaire-28 (GHQ) outcome of paroxetine treatment in PTSD; format: in vivo, human; conditions: for GHQ total score, baseline vs treatment: 8 weeks
Text: Sixty-five unrelated male Caucasian patients with the diagnosis of PTSD were recruited for study. All subjects were Vietnam combat veterans who had served in the Australian armed forces. None were being treated with psychotropic medication. […] confirmed by all patients exceeding the clinical cut-off score of 94 on the Mississippi Scale for combat-related posttraumatic stress disorder (Zatzick et al., 1997). The validity and reliability of the Mississippi scale ate well established in veterans (Keane et al., 1988). Patients then underwent clinical history taking by a psychiatrist or by a clinical nurse (EP). Demographic data and ethnic background were also obtained. […] The General Health Questionnaire-28 (GHQ) was administered at baseline (0-7 days on paroxetine) and at the end of treatment (8 weeks after commencement on paroxetine). This questionnaire measures four psychopathological factors particularly relevant to PTSD and its comorbid psychiatric conditions: somatic concerns (GHQ1), anxiety/insomnia (GHQ2), social dysfunction (GHQ3) and depression (GHQ4). The GHQ has been widely validated internationally as a means of detecting psychiatric […] sensitive to change (Ormel et al., 1989). The GHQ has utility as a follow-up measure of veteran mental health following exposure to combat (Deahl et al., 1994) and is sensitive to changes in combat-related PTSD symptoms (Ward, 1997). Information coded from the interviews, GHQ and genotyping results were entered into a computer database. Nominal data were analyzed by Yates corrected X^2 test and continuous data, with repeated measures, were analyzed by paired t-test or by analysis of variance. P values≦0.05 were considered statistically significant.

PTSD patients [2] = assay: Discontinuation and adverse events during paroxetine treatment in PTSD; format: in vivo, human; conditions: for Subjects with adverse events relating to anxiety, insomnia, headache or tremor / Subjects with erectile dysfunction, decreased libido or delayed ejaculation: group that discontinued
Experimental: Sixty-five unrelated male Caucasian patients with the diagnosis of PTSD were recruited for study. All subjects were Vietnam combat veterans who had served in the Australian armed forces. None were being treated with psychotropic medication.
After initial assessment, patients were medically examined and then were started on 20 mg/day of paroxetine for the first two weeks followed by a 40 mg/day dose for the remaining six weeks.
Patient assessments were conducted blind to their DRD2 allelic status. In addition to their standard treatment, patients were monitored twice for adverse events. Drug compliance was checked by pill count. All participants provided written informed consent and were able to terminate treatment without prejudice. However, those terminating participation were asked to provide reasons for their withdrawal. Institutional ethics approval was obtained from the Greenslopes Private Hospital.

PTSD = conditions: compared to 32% with placebo; cited from earlier work

Number of patients exceeding hyperprolactinemia cut-off levels (Serum prolactin; Clozapine and Olanzapine patients combined): 7 | Hyperprolactinemic patients as share of the sample (Serum prolactin; Clozapine and Olanzapine patients combined, sample of 144): 5% | Prolactin levels in A1+ compared to A1− allelic patients (Serum prolactin; P=0.04): more than two fold higher
SMILES: CN1CCN(C2=Nc3cc(Cl)ccc3Nc3ccccc32)CC1 [Clozapine]

SMILES: Fc1ccc([C@@H]2CCNC[C@H]2COc2ccc3c(c2)OCO3)cc1 [paroxetine]
GHQ3 (social dysfunction) subscale score over the course of treatment (PTSD patients [1]; A1+ allelic subjects): significant improvement | GHQ3 (social dysfunction) subscale score over the course of treatment (PTSD patients [1]; A1− allelic subjects): no such improvement | GHQ total score, baseline vs treatment (PTSD patients [1]; A1− patients): no significant improvement; also recorded: did not | GHQ total score, baseline vs treatment (PTSD patients [1]; total 45 patients): significant improvement | GHQ1 (somatic concerns) subscale score over the course of treatment (PTSD patients [1]; total patient group): not significantly reduced | GHQ2 (anxiety/insomnia) subscale score over the course of treatment (PTSD patients [1]; total patient group): significantly reduced | GHQ3 (social dysfunction) subscale score over the course of treatment (PTSD patients [1]; total patient group): significant improvement | GHQ4 (depression) subscale score during treatment (PTSD patients [1]; total patient group): significant improvement | Number of patients who discontinued treatment (PTSD patients [2]; A1+ (of 26)): 4 | Subjects with adverse events relating to anxiety, insomnia, headache or tremor (PTSD patients [2]; A1+): 2 | Subjects with erectile dysfunction, decreased libido or delayed ejaculation (PTSD patients [2]; A1+): 2 | Number of patients who discontinued treatment (PTSD patients [2]; A1− (of 39)): 16 | Subjects with adverse events relating to anxiety, insomnia, headache or tremor (PTSD patients [2]; A1−): 11 | Subjects with erectile dysfunction, decreased libido or delayed ejaculation (PTSD patients [2]; A1−): 5 | Number of patients who discontinued treatment (PTSD patients [2]; of the 65 patients who entered the study): 20

SMILES: CN[C@H]1CC[C@@H](c2ccc(Cl)c(Cl)c2)c2ccccc21 [sertraline]
Responder rate (PTSD): 53%
